In ChEMBL document CHEMBL1909046, “DrugMatrix in vitro pharmacology data” one finds IC50 and Ki data, which are given here for 21 compounds.

As usually defined, the IC50 is the concentration that inhibits the measured activity by half. In general, Ki refers to the equilibrium dissociation constant of an inhibitor or competing ligand from its target.

Assay [1] can be described thus: DRUGMATRIX: Phosphodiesterase PDE3 enzyme inhibition (substrate: [3H]cAMP + cAMP). The class given is tissue-based, Homo sapiens. To be noted: platelet; Not Active = under 50% inhibition at 10 µM.
The nature of assay [2]: DRUGMATRIX: Phosphodiesterase PDE4 enzyme inhibition (substrate: [3H]cAMP + cAMP). To be noted: u-937; Not Active = under 50% inhibition at 10 µM.
A short description of assay [3]: DRUGMATRIX: Sigma2 radioligand binding (ligand: [3H] Ifenprodil). It counts as cell membranes, Rattus norvegicus, Wistar, Brain, Membrane. To be noted: Not Active = under 50% inhibition at 10 µM.
Assay [4] in a line: DRUGMATRIX: Serotonin (5-Hydroxytryptamine) 5-HT3 radioligand binding (ligand: [3H] GR-65630). It counts as cell membranes, Membrane. To be noted: hek293; Not Active = under 50% inhibition at 10 µM.
The target of assay [5] is T1, Androgen receptor (Rattus norvegicus, UniProt P15207).
T1 sequence (P15207 whole entry): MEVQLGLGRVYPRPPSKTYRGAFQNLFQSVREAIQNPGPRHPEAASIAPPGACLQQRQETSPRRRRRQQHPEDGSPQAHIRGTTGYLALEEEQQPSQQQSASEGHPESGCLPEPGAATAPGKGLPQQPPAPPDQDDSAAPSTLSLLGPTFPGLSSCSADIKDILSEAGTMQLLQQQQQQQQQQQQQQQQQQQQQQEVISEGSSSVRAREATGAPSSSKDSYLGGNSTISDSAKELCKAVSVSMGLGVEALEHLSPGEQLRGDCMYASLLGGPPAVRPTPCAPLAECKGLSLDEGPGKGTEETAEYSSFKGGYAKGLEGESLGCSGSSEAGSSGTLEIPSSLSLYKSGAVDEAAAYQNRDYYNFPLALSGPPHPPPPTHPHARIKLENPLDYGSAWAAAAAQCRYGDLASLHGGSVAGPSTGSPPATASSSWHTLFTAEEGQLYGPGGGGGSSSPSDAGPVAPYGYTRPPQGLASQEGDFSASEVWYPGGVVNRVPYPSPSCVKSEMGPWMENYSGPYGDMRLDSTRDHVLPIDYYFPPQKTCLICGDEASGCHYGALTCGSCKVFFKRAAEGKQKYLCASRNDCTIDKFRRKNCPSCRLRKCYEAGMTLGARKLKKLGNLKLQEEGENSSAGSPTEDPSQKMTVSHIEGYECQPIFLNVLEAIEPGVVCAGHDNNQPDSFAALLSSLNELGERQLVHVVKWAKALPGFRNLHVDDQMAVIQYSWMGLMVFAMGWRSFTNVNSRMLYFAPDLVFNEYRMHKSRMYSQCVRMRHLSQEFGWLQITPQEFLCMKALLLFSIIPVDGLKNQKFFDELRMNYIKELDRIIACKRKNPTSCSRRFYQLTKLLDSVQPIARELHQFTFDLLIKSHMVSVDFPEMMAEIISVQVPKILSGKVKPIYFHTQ

For assay [6], the target named is Cytochrome P450 2C9 (Homo sapiens, UniProt P11712). Note: in other assays of this panel Not Active means under 50% inhibition at 10 µM.
Chain of Cytochrome P450 2C9 (P11712 whole entry): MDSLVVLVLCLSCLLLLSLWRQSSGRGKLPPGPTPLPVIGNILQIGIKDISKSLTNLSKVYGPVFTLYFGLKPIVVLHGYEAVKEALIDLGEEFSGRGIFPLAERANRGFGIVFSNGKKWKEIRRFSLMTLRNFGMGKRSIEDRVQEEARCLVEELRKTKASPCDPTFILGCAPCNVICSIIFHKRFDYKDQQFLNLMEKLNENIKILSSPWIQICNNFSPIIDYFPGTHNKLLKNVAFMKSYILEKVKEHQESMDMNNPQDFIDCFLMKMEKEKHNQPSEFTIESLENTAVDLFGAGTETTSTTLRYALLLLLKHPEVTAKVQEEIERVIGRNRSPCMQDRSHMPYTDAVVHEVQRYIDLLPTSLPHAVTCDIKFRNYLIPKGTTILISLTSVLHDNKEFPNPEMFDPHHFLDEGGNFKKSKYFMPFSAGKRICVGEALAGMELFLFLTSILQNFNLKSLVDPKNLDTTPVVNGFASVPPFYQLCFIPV
The target in assay [7] is Cytochrome P450 2D6 (Homo sapiens, UniProt P10635). Note: in other assays of this panel Not Active means under 50% inhibition at 10 µM.
Chain of Cytochrome P450 2D6 (P10635 whole entry): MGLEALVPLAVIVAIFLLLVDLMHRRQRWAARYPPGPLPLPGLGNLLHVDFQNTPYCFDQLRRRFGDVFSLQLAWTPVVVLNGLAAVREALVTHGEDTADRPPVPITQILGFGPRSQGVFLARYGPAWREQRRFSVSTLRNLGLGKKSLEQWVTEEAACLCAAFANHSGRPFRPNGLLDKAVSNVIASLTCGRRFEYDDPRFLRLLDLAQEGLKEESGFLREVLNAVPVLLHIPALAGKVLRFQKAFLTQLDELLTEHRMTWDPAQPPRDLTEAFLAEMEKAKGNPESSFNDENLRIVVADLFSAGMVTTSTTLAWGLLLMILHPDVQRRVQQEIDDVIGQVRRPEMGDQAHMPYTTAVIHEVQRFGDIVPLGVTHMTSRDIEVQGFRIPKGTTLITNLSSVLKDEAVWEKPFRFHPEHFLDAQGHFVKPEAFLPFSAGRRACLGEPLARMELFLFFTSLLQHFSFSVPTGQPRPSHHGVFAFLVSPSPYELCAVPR
Assay [8] has as its target T1, Androgen receptor. This is another data set of the same source.
In assay [9] the target is Glycine receptor (Rattus norvegicus, UniProt P07727+P20781+P22771+P24524). It counts as cell membranes, Wistar, Spinal cord, Membrane. Note: in other assays of this panel Not Active means under 50% inhibition at 10 µM.
Chain of Glycine receptor (P22771 whole entry): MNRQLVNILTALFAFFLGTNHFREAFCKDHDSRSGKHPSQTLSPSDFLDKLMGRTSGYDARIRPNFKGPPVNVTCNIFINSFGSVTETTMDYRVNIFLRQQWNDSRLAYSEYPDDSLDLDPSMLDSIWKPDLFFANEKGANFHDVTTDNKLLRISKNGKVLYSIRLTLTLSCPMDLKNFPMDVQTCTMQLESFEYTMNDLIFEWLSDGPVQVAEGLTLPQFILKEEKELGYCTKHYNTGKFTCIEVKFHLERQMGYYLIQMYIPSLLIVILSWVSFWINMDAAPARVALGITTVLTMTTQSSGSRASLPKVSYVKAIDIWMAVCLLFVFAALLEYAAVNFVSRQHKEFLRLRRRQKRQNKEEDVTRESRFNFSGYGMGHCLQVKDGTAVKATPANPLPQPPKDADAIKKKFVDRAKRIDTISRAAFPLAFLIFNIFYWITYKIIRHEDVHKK
Chain of Glycine receptor (P24524 whole entry): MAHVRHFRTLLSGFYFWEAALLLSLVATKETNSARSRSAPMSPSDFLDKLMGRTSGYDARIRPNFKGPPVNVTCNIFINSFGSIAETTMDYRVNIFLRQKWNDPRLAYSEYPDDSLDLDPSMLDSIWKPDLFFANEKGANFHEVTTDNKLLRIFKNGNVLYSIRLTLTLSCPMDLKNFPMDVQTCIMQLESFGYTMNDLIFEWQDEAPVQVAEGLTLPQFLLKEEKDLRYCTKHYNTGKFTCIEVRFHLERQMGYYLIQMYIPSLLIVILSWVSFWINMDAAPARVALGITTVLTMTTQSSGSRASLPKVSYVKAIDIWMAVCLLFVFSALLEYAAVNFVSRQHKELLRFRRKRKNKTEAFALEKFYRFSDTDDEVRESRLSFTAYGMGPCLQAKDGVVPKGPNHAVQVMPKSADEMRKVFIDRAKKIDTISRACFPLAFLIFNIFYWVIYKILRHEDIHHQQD
Chain of Glycine receptor (P07727 whole entry): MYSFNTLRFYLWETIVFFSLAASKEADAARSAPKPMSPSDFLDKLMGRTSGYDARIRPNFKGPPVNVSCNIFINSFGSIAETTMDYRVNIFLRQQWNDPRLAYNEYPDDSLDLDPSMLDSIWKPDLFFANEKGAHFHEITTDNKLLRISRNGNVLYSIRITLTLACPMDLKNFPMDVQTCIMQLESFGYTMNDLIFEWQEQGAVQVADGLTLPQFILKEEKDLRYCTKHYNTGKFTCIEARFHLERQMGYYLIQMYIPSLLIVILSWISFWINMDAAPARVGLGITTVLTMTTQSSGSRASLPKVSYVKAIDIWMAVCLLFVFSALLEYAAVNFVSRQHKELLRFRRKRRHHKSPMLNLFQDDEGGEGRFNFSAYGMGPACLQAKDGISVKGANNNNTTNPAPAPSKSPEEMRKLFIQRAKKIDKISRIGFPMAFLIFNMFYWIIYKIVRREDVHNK
Chain of Glycine receptor (P20781 whole entry): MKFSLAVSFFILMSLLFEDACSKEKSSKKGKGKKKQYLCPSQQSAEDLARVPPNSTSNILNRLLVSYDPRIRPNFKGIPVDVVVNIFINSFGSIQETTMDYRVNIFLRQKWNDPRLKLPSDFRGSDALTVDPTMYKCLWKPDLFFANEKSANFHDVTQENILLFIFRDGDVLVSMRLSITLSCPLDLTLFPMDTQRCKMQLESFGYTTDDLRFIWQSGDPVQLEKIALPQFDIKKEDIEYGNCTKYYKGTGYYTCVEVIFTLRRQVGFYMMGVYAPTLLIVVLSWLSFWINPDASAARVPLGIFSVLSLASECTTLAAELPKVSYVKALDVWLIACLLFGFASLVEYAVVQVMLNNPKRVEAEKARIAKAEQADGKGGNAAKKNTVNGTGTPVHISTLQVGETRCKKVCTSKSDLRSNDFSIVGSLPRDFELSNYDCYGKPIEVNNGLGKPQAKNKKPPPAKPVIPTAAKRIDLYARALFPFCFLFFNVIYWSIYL

As for `CCCCC(=O)N(Cc1ccc(-c2ccccc2-c2nnn[nH]2)cc1)[C@H](C(=O)O)C(C)C`, the IC50 entry in assay [1], in [2], in [3] and in [4] was “Not Active” throughout. The Ki result in assay [1], in [2], in [3] and in [4] was “Not Active” each time.
As for `O=C(O)COc1ccc(C(=O)c2cccs2)c(Cl)c1Cl`, the IC50 entry in [1], in [2], in [5], in [3] and in assay [4] was “Not Active” each time. Also, the Ki result in assay [1], in assay [2], in [3] and in [4] was “Not Active” each time.
For `C[C@@](Cc1ccc(O)c(O)c1)(NN)C(=O)O.O` [CARBIDOPA], the IC50 result in [1], in [2], in [3] and in assay [4] was “Not Active” in each case. The Ki result in [1], in assay [2], in assay [3] and in assay [4] was “Not Active” throughout.
In the case of `O=C(O)CCCCC1CCSS1` (stereo not drawn) [LIPOIC ACID, ALPHA], the IC50 entry in assay [1], in [2], in assay [3] and in assay [4] was “Not Active” in each case. Also, the Ki result in [1], in assay [2], in assay [3] and in assay [4] was “Not Active” in each case.
With `Clc1ccc(COC(Cn2ccnc2)c2ccc(Cl)cc2Cl)c(Cl)c1` (stereo unspecified) [MICONAZOLE], the IC50 was determined as 200 nM in assay [6], 1000 nM in [7] and 7090 nM in [8]. In addition, affinity in [8] was put at a Ki of 4730 nM.
On to `Oc1ccc2c3c1O[C@H]1[C@@H](O)CC[C@@]4(O)[C@@H](C2)N(CC2CCC2)CC[C@]314` [NALBUPHINE], for which, in assay [5], the IC50 result is reported as “Not Active”.
Turning to `C[C@]12C=CC(=O)C=C1CC[C@@H]1[C@@H]2C(=O)C[C@@]2(C)[C@H]1CC[C@]2(O)C(=O)CO` [PREDNISONE], the IC50 result in assay [1], in assay [2], in assay [3] and in [4] was “Not Active” each time. The inhibitory constant (Ki) entry in assay [1], in [2], in assay [3] and in [4] was “Not Active” in each case.
As to `COC(=O)[C@H]1[C@H]2C[C@@H]3c4[nH]c5cc(OC)ccc5c4CCN3C[C@H]2C[C@@H](OC(=O)c2cc(OC)c(OC)c(OC)c2)[C@@H]1OC` [RESERPINE], the IC50 result in assay [1], in assay [2], in assay [3] and in assay [4] was “Not Active” throughout. The Ki entry in assay [1], in [2], in assay [3] and in [4] was “Not Active” throughout.
Turning to `O=C(O)c1ccccc1O` [SALICYLIC ACID], the IC50 result in [1], in assay [2], in [3] and in assay [4] was “Not Active” in each case. Moreover, the Ki entry in [1], in [2], in assay [3] and in assay [4] was “Not Active” in each case.
In the case of `CC1CCC(NC(=O)N(CCCl)N=O)CC1` (stereo unspecified) [SEMUSTINE], the 50% inhibitory concentration (IC50) result in assay [1], in [2], in assay [3] and in assay [4] was “Not Active” each time. Also, the Ki entry in assay [1], in [2], in assay [3] and in [4] was “Not Active” in each case.
Turning to `O=C1C[C@@H]2OCC=C3CN4CC[C@]56c7ccccc7N1[C@H]5[C@H]2[C@H]3C[C@H]46` [STRYCHNINE], the IC50 in assay [9] is 8.29 nM; in assay [1], “Not Active”; in assay [2] it was “Not Active”; in assay [3], “Not Active”; in [4], “Not Active”. Further, the Ki in assay [9] was 4.69 nM; in assay [1], “Not Active”; in [2], “Not Active”; in [3] it was “Not Active”; in assay [4] it was “Not Active”.
On to `C[N+](C)(C)CCOC(=O)CCC(=O)OCC[N+](C)(C)C.[Cl-].[Cl-]` [SUCCINYLCHOLINE CHLORIDE], for which the IC50 entry in assay [1], in assay [2], in assay [3] and in assay [4] was “Not Active” throughout. The Ki result in assay [1], in assay [2], in assay [3] and in assay [4] was “Not Active” each time.
As for `Nc1ccc(S(=O)(=O)NC(=O)c2ccccc2)cc1` [SULFABENZAMIDE], the IC50 entry in assay [1], in assay [2], in [3] and in assay [4] was “Not Active” throughout. In addition, the Ki entry in assay [1], in assay [2], in assay [3] and in assay [4] was “Not Active” in each case.
With `CCCCCCCCNC(C)C(O)c1ccc(SC(C)C)cc1` (stereo unspecified) [SULOCTIDIL], the IC50 result in [1] was “Not Active”; in assay [2] it was “Not Active”; in [5], “Not Active”; in assay [3] (read-out: IC50), 21.4 nM; in assay [4], “Not Active”. In addition, the inhibitory constant (Ki) result is “Not Active” in assay [1], “Not Active” in assay [2], 13.2 nM in [3] (read-out: Ki) and “Not Active” in assay [4].
Take `O=c1[nH]c(=O)n(C2CCCO2)cc1F` (stereo unspecified) [TEGAFUR]: the IC50 result in assay [1], in [2], in [3] and in [4] was “Not Active” throughout. Moreover, the Ki entry in assay [1], in assay [2], in [3] and in [4] was “Not Active” each time.
For `CC(=N)S` [THIOACETAMIDE], the IC50 entry in assay [1], in assay [2], in assay [3] and in assay [4] was “Not Active” in each case. The Ki entry in assay [1], in assay [2], in assay [3] and in assay [4] was “Not Active” throughout.
Regarding `Cc1ccc(C(=O)c2ccc(CC(=O)O)n2C)cc1` [TOLMETIN], the IC50 result in assay [1], in [2], in assay [5], in [3] and in [4] was “Not Active” in each case. The Ki entry in assay [1], in assay [2], in [3] and in [4] was “Not Active” each time.
In the case of `CC(=O)OCC(COC(C)=O)OC(C)=O` [TRIACETIN], the IC50 entry in assay [1], in [2], in assay [3] and in assay [4] was “Not Active” each time. Also, the Ki entry in assay [1], in assay [2], in assay [3] and in assay [4] was “Not Active” throughout.
With `CN1CCN(CCCN2c3ccccc3Sc3ccc(C(F)(F)F)cc32)CC1` [TRIFLUOPERAZINE], the IC50 result in assay [1], in [2], in assay [3] and in [4] was “Not Active” throughout. Further, the inhibitory constant (Ki) entry in assay [1], in assay [2], in assay [3] and in [4] was “Not Active” each time.
For TRANSPLATIN, the IC50 entry in [1], in [2], in assay [5], in assay [3] and in assay [4] was “Not Active” in each case. Also, the Ki entry in [1], in [2], in assay [5], in assay [3] and in assay [4] was “Not Active” in each case.
Consider ZIRCONIUM(IV) CHLORIDE, for which the IC50 result in assay [1], in assay [2], in [5], in [3] and in assay [4] was “Not Active” each time. The inhibition constant (Ki) result in [1], in [2], in [5], in assay [3] and in assay [4] was “Not Active” in each case.
